The record followed here is patent US5837687A, “Azapeptide derivative” (Fujirebio Inc., priority 1994, dated 1998).

Peptide text beside a SMILES is read from it. * marks the point of attachment. Boc = CC(C)(C)OC(=O)*; OBn = c1ccc(CO*)cc1

The first test concerns the target T1, NKA receptor (Mesocricetus auratus, UniProt P51144).
T1 construct: from tissue; host or cells: hamster respiratory tract (trachea) ring specimens
T1 sequence (P51144 1-384): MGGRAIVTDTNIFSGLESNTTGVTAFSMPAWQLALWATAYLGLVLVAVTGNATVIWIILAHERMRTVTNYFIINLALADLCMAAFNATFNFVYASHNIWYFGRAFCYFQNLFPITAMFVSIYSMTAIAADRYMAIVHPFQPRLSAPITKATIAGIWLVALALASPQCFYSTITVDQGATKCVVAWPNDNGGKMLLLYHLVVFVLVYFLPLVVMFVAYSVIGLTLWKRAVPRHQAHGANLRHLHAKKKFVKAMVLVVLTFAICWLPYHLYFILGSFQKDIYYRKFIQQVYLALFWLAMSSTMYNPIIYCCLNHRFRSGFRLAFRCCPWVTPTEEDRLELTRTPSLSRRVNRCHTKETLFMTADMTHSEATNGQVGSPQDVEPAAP
Briefly: Activity to constriction of hamster respiratory tracts caused by NKA (isolated tissue, tension).
Settings: not given
The class given is cell-based. Here is the method: The activity of the azapeptide derivative of the present invention to a NKA receptor was evaluated by the following method.
(1) Activity to constriction of hamster respiratory tracts caused by NKA
Respiratory tracts were taken out from male Syrian strain Golden hamsters having a body weight of 100 to 180 g, and cyclic specimens having a width of 3 to 6 mm were prepared. The specimens were incubated at 37° C. and suspended by loading a static tension of 0.5 g, in a reaction tank charged with 15 ml of a Tyrode solution (137 mM of NaCl, 2.7 mM of KCl, 1.8 mM of CaCl2, 1.02 mM of MgCl2, 11.9 mM of NaHCO3, 0.42 mM of NaH2 PO4 and 5.5 mM of glucose) in which 95% O2 -5% CO2 had been passed.
The compound to be tested was charged into the reaction tank and maintained for 5 minutes. 1×10^-7 M of NKA was charged into the reaction tank, and tension caused thereby was recorded. The examined effect of the tested compound as an antagonist was shown by IC50.
By IC50 is commonly meant the concentration that gives 50% inhibition. As for `CSCC[C@H](NC(=O)OC(C)(C)C)C(=O)N[C@@H](Cc1c[nH]c2ccccc12)C(=O)NN(Cc1ccccc1)C(=O)NCCOCc1ccccc1` [Example 11, Boc-Met-Trp-AzPhe-NH(CH2)2 OCH2 Ph], it took 8.9 nM to reach half-maximal inhibition (IC50).
Still for that read-out and setting: in the case of `CC(C)CCNC(=O)N[C@@H](CCC(N)=O)C(=O)N[C@@H](Cc1c[nH]c2ccccc12)C(=O)NN(Cc1ccccc1)C(=O)NCCOCc1ccccc1` [Example 7, i-Pent-NHCO-Gln-Trp-AzPhe-NH(CH2)2OCH2 Ph] it was 0.5 nM.
Still for that read-out and setting: in the case of `Cc1ccc(CN(NC(=O)[C@H](Cc2c[nH]c3ccccc23)NC(=O)[C@H](CCC(N)=O)NC(=O)NC(C)(C)C)C(=O)NCCOCc2ccccc2)cc1` [Example 35 (3), t-Bu-NHCO-Gln-Trp-AzPhe(4-Me)-NH(CH2)2 OCH2 Ph] it was 0.82 nM; in that of `CC(C)(C)NC(=O)N[C@@H](CCC(N)=O)C(=O)N[C@@H](Cc1c[nH]c2ccccc12)C(=O)NN(Cc1ccccc1)C(=O)NCCOCc1cccnc1` [Example 42 (3), t-Bu-NHCO-Gln-Trp-AzPhe-NH(CH2)2 O-(3-pyridylmethyl)], 16 nM.
The same measure, in the same setting: next, `CC(C)(C)OC(=O)N[C@@H](CC(=O)OCc1ccccc1)C(=O)N[C@@H](CCC(N)=O)C(=O)N[C@@H](Cc1c[nH]c2ccccc12)C(=O)NN(Cc1ccccc1)C(=O)NCCOCc1ccccc1` [Example 2 (3), Boc-Asp(OBzl)-Gln-Trp-AzPhe-NH(CH2)2 OCH2 Ph]: 1.9 nM; `CNC(=O)N(Cc1ccccc1)NC(=O)[C@H](Cc1c[nH]c2ccccc12)NC(=O)[C@H](CCC(N)=O)NC(=O)[C@H](CC(=O)OCc1ccccc1)NC(=O)OC(C)(C)C` [Example 23 (3), Boc-Asp(OBzl)-Gln-Trp-AzPhe-NHCH3]: 78 nM.
Take `CC(C)(C)OC(=O)N[C@@H](CC(N)=O)C(=O)N[C@@H](Cc1c[nH]c2ccccc12)C(=O)NN(Cc1ccccc1)C(=O)NCCOCc1ccccc1` [Example 10, Boc-Asn-Trp-AzPhe-NH(CH2)2 OCH2 Ph]: the IC50 turned out to be 6.8 nM.
`CC(C)(C)OC(=O)N[C@@H](CC(=O)OCc1ccccc1)C(=O)N[C@@H](CCC(N)=O)C(=O)N[C@@H](Cc1c[nH]c2ccccc12)C(=O)NN(Cc1ccccc1)C(=O)Nc1ccccc1` [Example 29 (3, Boc-Asp(OBzl)-Gln-Trp-AzPhe-NHPh] yielded an IC50 of 190 nM.
Same read-out and setting: next, `CC(C)(C)OC(=O)N[C@@H](Cc1c[nH]c2ccccc12)C(=O)NN(Cc1ccccc1)C(=O)NCCOCc1ccccc1` [Example 2 (1), Boc-Trp-AzPhe-NH(CH2)2 OCH2 Ph]: 310 nM; `NC(=O)CC[C@H](NC(=O)NC1CCCC1)C(=O)N[C@@H](Cc1c[nH]c2ccccc12)C(=O)NN(Cc1ccccc1)C(=O)NCCOCc1ccccc1` [Example 8, cyPent-NHCO-Gln-Trp-AzPhe-NH (CH2)2 OCH2 Ph]: 0.7 nM; `NC(=O)CC[C@H](NC(=O)c1ccccc1)C(=O)N[C@@H](Cc1c[nH]c2ccccc12)C(=O)NN(Cc1ccccc1)C(=O)NCCOCc1ccccc1` [Example 4, Bz-Gln-Trp-AzPhe-NH(CH2)2 OCH2 Ph]: 2.3 nM.
Compound `CC(C)(C)OC(=O)N[C@@H](CCC(N)=O)C(=O)N[C@@H](Cc1c[nH]c2ccccc12)C(=O)NN(Cc1ccccc1)C(=O)NCCOCc1ccccc1` [Example 2 (2), Boc-Gln-Trp-AzPhe-NH(CH2)2 OCH2 Ph] had a concentration for half-maximal inhibition (IC50) of 0.66 nM.
Same read-out and setting: next, `CC(C)(C)NC(=O)N[C@@H](CCC(N)=O)C(=O)N[C@@H](Cc1c[nH]c2ccccc12)C(=O)NN(Cc1ccc(F)cc1)C(=O)NCCOCc1ccccc1` [Example 31, t-Bu-NHCO-Gln-Trp-AzPhe(4-F)-NH(CH2)2 OCH2 Ph]: 0.42 nM.
Same read-out and setting: next, `CC(C)(C)OC(=O)N[C@@H](CCS(C)(=O)=O)C(=O)N[C@@H](Cc1c[nH]c2ccccc12)C(=O)NN(Cc1ccccc1)C(=O)NCCOCc1ccccc1` [Example 9, Boc-Met(O2)-Trp-AzPhe-NH (CH2)2 OCH2 Ph]: 1.4 nM; `CC(C)(C)NC(=O)N[C@@H](CCC(N)=O)C(=O)N[C@@H](Cc1c[nH]c2ccccc12)C(=O)NN(Cc1ccccc1)C(=O)NCCOCc1ccc2ccccc2c1` [Example 41 (3), t-Bu-NHCO-Gln-Trp-AzPhe-NH(CH2)2 O-(2-naphthylmethyl)]: 20 nM.
Still for that read-out and setting: next, `CC(C)(C)NC(=O)N[C@@H](CCC(N)=O)C(=O)N[C@@H](Cc1c[nH]c2ccccc12)C(=O)NN(Cc1ccccc1F)C(=O)NCCOCc1ccccc1` [Example 39 (3), t-Bu-NHCO-Gln-Trp-AzPhe(2-F)-NH(CH2)2 OCH2 Ph]: 0.61 nM.
`NC(=O)CC[C@H](NC(=O)C1CCCC1)C(=O)N[C@@H](Cc1c[nH]c2ccccc12)C(=O)NN(Cc1ccccc1)C(=O)NCCOCc1ccccc1` [Example 5, cyPent-CO-Gln-Trp-AzPhe-NH(CH2)2 OCH2 Ph] came in with an IC50 of 2.2 nM.
Still for that read-out and setting: next, `CC(C)(C)OC(=O)N[C@@H](CCCNC(=O)OCc1ccccc1)C(=O)N[C@@H](Cc1c[nH]c2ccccc12)C(=O)NN(Cc1ccccc1)C(=O)NCCOCc1ccccc1` [Example 13 (1), Boc-Orn(Z)-Trp-AzPhe-NH (CH2)2 OCH2 Ph]: 80 nM.
For `CC(C)(C)NC(=O)N[C@@H](CCC(N)=O)C(=O)N[C@@H](Cc1c[nH]c2ccccc12)C(=O)NN(Cc1ccccc1)C(=O)NCCOCc1ccccc1` [Example 6, t-Bu-NHCO-Gln-Trp-AzPhe-NH(CH2)2 OCH2 Ph], it took 0.6 nM to reach half-maximal inhibition (IC50).
On the same count and under the same terms, in the case of `COc1ccc(CNC(=O)N(Cc2ccccc2)NC(=O)[C@H](Cc2c[nH]c3ccccc23)NC(=O)[C@H](CCC(N)=O)NC(=O)[C@H](CC(=O)OCc2ccccc2)NC(=O)OC(C)(C)C)c(OC)c1` [Example 22, Boc-Asp(OBzl)-Gln-Trp-AzPhe-NHDmob] it was 4900 nM; in that of `CC(C)(C)OC(=O)N[C@@H](CC(=O)OCc1ccccc1)C(=O)N[C@@H](CCC(N)=O)C(=O)N[C@H](Cc1c[nH]c2ccccc12)C(=O)NN(Cc1ccccc1)C(N)=O` [Example 27 (3), Boc-Asp(OBzl)-Gln-D-Trp-AzPhe-NH2], 990 nM.
On the same count and under the same terms, in the case of `CC(C)(C)NC(=O)N[C@@H](CCC(N)=O)C(=O)N[C@@H](Cc1c[nH]c2ccccc12)C(=O)NN(Cc1ccccc1)C(=O)NCCOC(c1ccccc1)c1ccccc1` [Example 44 (2), t-Bu-NHCO-Gln-Trp-AzPhe-NH(CH2)2 O-benzhydryl] it was 230 nM; in that of `CC(C)CCC(=O)N[C@@H](CC(=O)OCc1ccccc1)C(=O)N[C@@H](CCC(N)=O)C(=O)N[C@@H](Cc1c[nH]c2ccccc12)C(=O)NN(Cc1ccccc1)C(=O)NCc1ccccc1` [Example 21, i-Pent-CO-Asp(OBzl)-Gln-Trp-AzPhe-NHCH2 Ph], 1.7 nM.
Same read-out and setting: next, `CC(C)(C)OC(=O)N[C@@H](CC(=O)O)C(=O)N[C@@H](Cc1c[nH]c2ccccc12)C(=O)NN(Cc1ccccc1)C(=O)NCCOCc1ccccc1` [Example 16 (2), Boc-Asp-Trp-AzPhe-NH(CH2)2 OCH2 Ph]: 13 nM.
`CC(C)CNC(=O)N(Cc1ccccc1)NC(=O)[C@H](Cc1c[nH]c2ccccc12)NC(=O)[C@H](CCC(N)=O)NC(=O)[C@H](CC(=O)OCc1ccccc1)NC(=O)OC(C)(C)C` [Example 25 (3), Boc-Asp(OBzl)-Gln-Trp-AzPhe-NHCH2 CH(CH3)2] returned an IC50 of 34 nM.
Still for that read-out and setting: next, `CC(C)(C)OC(=O)N[C@@H](CCCNC(N)=O)C(=O)N[C@@H](Cc1c[nH]c2ccccc12)C(=O)NN(Cc1ccccc1)C(=O)NCCOCc1ccccc1` [Example 14, Boc-Cit-Trp-AzPhe-NH(CH2)2 OCH2 Ph]: 24 nM; `Cc1ccc(C)c(CN(NC(=O)[C@H](Cc2c[nH]c3ccccc23)NC(=O)[C@H](CCC(N)=O)NC(=O)NC(C)(C)C)C(=O)NCCOCc2ccccc2)c1` [Example 38 (3), t-Bu-NHCO-Gln-Trp-AzPhe(2,5-diMe)-NH(CH2)2 OCH2 Ph]: 0.68 nM.
On the same count and under the same terms, in the case of `Cc1cccc(CN(NC(=O)[C@H](Cc2c[nH]c3ccccc23)NC(=O)[C@H](CCC(N)=O)NC(=O)NC(C)(C)C)C(=O)NCCOCc2ccccc2)c1` [Example 34 (3), t-Bu-NHCO-Gln-Trp-AzPhe(3-Me)-NH(CH2)2 OCH2 Ph] it was 3.9 nM.
For `CC(C)(C)OC(=O)N[C@@H](CC(=O)OCc1ccccc1)C(=O)N[C@@H](CCC(N)=O)C(=O)N[C@@H](Cc1c[nH]c2ccccc12)C(=O)NN(Cc1ccccc1)C(=O)NCCO` [Example 24 (2), Boc-Asp(OBzl)-Gln-Trp-AzPhe-NH(CH2)2 OH], the IC50 stood at 46 nM.
As to `Cc1ccccc1CN(NC(=O)[C@H](Cc1c[nH]c2ccccc12)NC(=O)[C@H](CCC(N)=O)NC(=O)NC(C)(C)C)C(=O)NCCOCc1ccccc1` [Example 33 (3), t-Bu-NHCO-Gln-Trp-AzPhe(2-Me)-NH(CH2)2 OCH2 Ph], half-maximal inhibition (IC50) was put at 0.16 nM.

Staying with this test, now noted: mole concentration giving 50% control of tension caused by 1×10^-7 M NKA; compound maintained 5 minutes; hamster respiratory tract specimens; read-out: IC50.
Regarding `CC(C)(C)OC(=O)N[C@@H](CC(=O)OCc1ccccc1)C(=O)N[C@@H](CCC(N)=O)C(=O)N[C@@H](Cc1c[nH]c2ccccc12)C(=O)N[C@@H](Cc1ccccc1)C(N)=O` [Reference example 14, Boc-Asp(OBzl)-Gln-Trp-Phe-NH2, reference compound] (Boc-D(OBn)QWF-NH2), the IC50 was determined as 330 nM.
